Measurements as given in patent US20250215039A1, “NUCLEOSIDES FOR TREATING CANCER” (PRIMEFOUR THERAPEUTICS, INC., priority 2022, published 2025).
pIC50: −log10 of the molar value. Like-named read-outs stand apart in the source and are kept apart here.

Test system: cancer cell lines
Test: Cancer cell proliferation activity (CellTiterGlo, 72 h)
Type: cell-based
Conditions: 72 h, 72 h, read-out: IC50
Summary of the method: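 Cells seeded overnight at 37 °C, then dosed with compound at 0.1% final DMSO and incubated 72 h at 37 °C (5% or 10% CO2 by medium).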

## Nc1nc(F)nc2c1ncn2[C@H]1C[C@H](O)[C@](CO)(CF)O1 [compound 150, (2R,3S,5R)-5-(6-amino-2-fluoro-9H-purin-9-yl)-2-(fluoromethyl)-2-(hydroxymethyl)tetrahydrofuran-3-ol]
5637 cell line (bladder)
  pIC50: 5.39
AS49 cell line (lung)
  pIC50: < 4.30
CLS439 cell line (bladder)
  pIC50: < 4.30
HS729 cell line (muscle)
  pIC50: 4.91
JAR cell line (placenta)
  pIC50: 5.76
Homo sapiens, 22Rv1, 72 h, 22RV1 cell line (prostate)
  pIC50: < 4.30
Homo sapiens, 786-0, 72 h, 786O cell line (kidney)
  pIC50: 5.69
Homo sapiens, A204, 72 h, A204 cell line (muscle)
  pIC50: 5.48
Homo sapiens, A673, 72 h, A673 cell line (bone)
  pIC50: < 4.30
Homo sapiens, A2780, 72 h, A2780 cell line (ovary)
  pIC50: 5.34
Homo sapiens, A-375, 72 h, A375 cell line (skin)
  pIC50: 5.63
Homo sapiens, A-431, 72 h, A431 cell line (skin)
  pIC50: 5.63
Homo sapiens, ACHN, ACHN cell line (kidney)
  pIC50: < 4.30
Homo sapiens, ASPC1, 72 h, ASPC1 cell line (pancreas)
  pIC50: 5.64
Homo sapiens, BT-20, 72 h, BT20 cell line (breast)
  pIC50: 5.69
Homo sapiens, BXPC-3, 72 h, BXPC3 cell line (pancreas)
  pIC50: < 4.30
Homo sapiens, C-33-A, C33A cell line (cervical)
  pIC50: 5.38
Homo sapiens, CAKI-1, 72 h, CAKI1 cell line (kidney)
  pIC50: 6.49
Homo sapiens, COLO 205, 72 h, COLO205 cell line (colon)
  pIC50: < 4.30
Homo sapiens, COLO-678, 72 h, COLO678 cell line (colon)
  pIC50: < 4.30
Homo sapiens, Ca-Ski, CASKI cell line (cervical)
  pIC50: 5.77
Homo sapiens, Caco-2, 72 h, CACO2 cell line (colon)
  pIC50: 5.44
Homo sapiens, Calu-6, 72 h, CALU6 cell line (lung)
  pIC50: 5.39
Homo sapiens, DLD-1, 72 h, DLD1 cell line (colon)
  pIC50: < 4.30
Homo sapiens, DU-145, 72 h, DU145 cell line (prostate)
  pIC50: 5.83
Homo sapiens, EFO-21, 72 h, EFO21 cell line (ovary)
  pIC50: 5.48
Homo sapiens, EJ-28, 72 h, EJ28 cell line (bladder)
  pIC50: 5.46
Homo sapiens, Granta-519, 72 h, GRANTA-519 cell line (hematological)
  pIC50: 5.40
Homo sapiens, HCT-15, 72 h, HCT15 cell line (colon)
  pIC50: < 4.30
Homo sapiens, HCT-116, 72 h, HCT116 cell line (colon)
  pIC50: 5.54
Homo sapiens, HEK293, 72 h, HEK293 cell line (kidney)
  pIC50: 5.61
Homo sapiens, HL-60, 72 h, HL-60 cell line (hematological)
  pIC50: 5.41
Homo sapiens, HT-29, 72 h, HT29 cell line (colon)
  pIC50: 5.84
Homo sapiens, HT-1080, 72 h, HT1080 cell line (connective tissue)
  pIC50: < 4.30
Homo sapiens, HeLa, HELA cell line (cervical)
  pIC50: 5.34
Homo sapiens, HepG2, 72 h, HEPG2 cell line (liver)
  pIC50: 5.53
Homo sapiens, Hs-578T, HS578T cell line, breast
  pIC50: 5.21
Homo sapiens, IGROV-1, 72 h, IGROV1 cell line (ovary)
  pIC50: 5.69
Homo sapiens, IMR-90, 72 h, IMR90 cell line, lung
  pIC50: 5.37
Homo sapiens, J82, 72 h, J82 cell line (bladder)
  pIC50: 5.33
Homo sapiens, JEG-3, 72 h, JEG3 cell line (placenta)
  pIC50: 5.55
Homo sapiens, JIMT-1, 72 h, JIMT1 cell line (breast)
  pIC50: 5.91
Homo sapiens, K562, 72 h, K-562 cell line (hematological)
  pIC50: < 4.30
Homo sapiens, Kasumi 1, 72 h, KASUMI-1 cell line (hematological)
  pIC50: 5.67
Homo sapiens, L-363, 72 h, L-363 cell line (hematological)
  pIC50: 5.47
Homo sapiens, LoVo, LOVO cell line (colon)
  pIC50: 5.79
Homo sapiens, MCF7, 72 h, MCF7 cell line (breast)
  pIC50: < 4.30
Homo sapiens, MDA-MB-231, 72 h, MDAMB231 cell line (breast)
  pIC50: < 4.30
Homo sapiens, MDA-MB-435, 72 h, MDAMB435 cell line (skin)
  pIC50: < 4.30
Homo sapiens, MDA-MB-436, 72 h, MDAMB436 cell line (breast)
  pIC50: 5.49
Homo sapiens, MDA-MB-468, 72 h, MDAMB468 cell line (breast)
  pIC50: 5.35
Homo sapiens, MG-63, 72 h, MG63 cell line (bone)
  pIC50: < 4.30
Homo sapiens, MHH-ES-1, 72 h, MHHES1 cell line (bone)
  pIC50: 5.54
Homo sapiens, MIA PaCa-2, 72 h, MIAPACA2 cell line (pancreas)
  pIC50: < 4.30
Homo sapiens, MINO, MINO cell line (hematological)
  pIC50: 5.97
Homo sapiens, MV4-11, 72 h, MV4-11 cell line (hematological)
  pIC50: 6.20
Homo sapiens, NCI-H23, 72 h, NCI-H23 cell line (lung)
  pIC50: 5.48
Homo sapiens, NCI-H82, 72 h, NCIH82 cell line (lung)
  pIC50: 5.42
Homo sapiens, NCI-H292, 72 h, NCIH292 cell line (lung)
  pIC50: < 4.30
Homo sapiens, NCI-H460, 72 h, NCIH460 cell line (lung)
  pIC50: 5.47
Homo sapiens, OVCAR-3, 72 h, OVCAR3 cell line (ovary)
  pIC50: 5.69
Homo sapiens, OVCAR-4, 72 h, OVCAR4 cell line (ovary)
  pIC50: 5.45
Homo sapiens, PANC-1, 72 h, PANC1 cell line (pancreas)
  pIC50: < 4.30
Homo sapiens, PC-3, 72 h, PC3 cell line (prostate)
  pIC50: 5.24
Homo sapiens, PLC-PRF-5, 72 h, PLCPRF5 cell line (liver)
  pIC50: < 4.30
Homo sapiens, Panc1005, 72 h, PANC1005 cell line (pancreas)
  pIC50: 5.85
Homo sapiens, RD, RD cell line (muscle)
  pIC50: 5.17
Homo sapiens, Ramos, RAMOS cell line (hematological)
  pIC50: 5.61
Homo sapiens, SAOS-2, 72 h, SAOS2 cell line (bone)
  pIC50: 5.45
Homo sapiens, SF-268, 72 h, SF268 cell line (brain)
  pIC50: < 4.30
Homo sapiens, SF-295, 72 h, SF295 cell line (brain)
  pIC50: < 4.30
Homo sapiens, SK-BR-3, 72 h, SKBR3 cell line (breast)
  pIC50: 5.88
Homo sapiens, SK-HEP1, 72 h, SKHEP1 cell line (liver)
  pIC50: < 4.30
Homo sapiens, SK-LMS-1, 72 h, SKLMS1 cell line (uterus)
  pIC50: 5.64
Homo sapiens, SK-MEL-5, 72 h, SKMEL5 cell line, skin
  pIC50: < 4.30
Homo sapiens, SK-MEL-28, 72 h, SKMEL28 cell line (skin)
  pIC50: 5.04
Homo sapiens, SK-N-AS, SKNAS cell line (brain)
  pIC50: 5.17
Homo sapiens, SK-N-SH, SKNSH cell line (brain)
  pIC50: 5.54
Homo sapiens, SK-OV-3, 72 h, SKOV3 cell line (ovary)
  pIC50: 5.44
Homo sapiens, SNB-75, 72 h, SNB75 cell line (brain)
  pIC50: 4.83
Homo sapiens, SU-DHL10, 72 h, SU-DHL-10 cell line (hematological)
  pIC50: 5.58
Homo sapiens, SU-DHL-6, 72 h, SU-DHL-6 cell line (hematological)
  pIC50: 5.68
Homo sapiens, SW-620, 72 h, SW620 cell line (colon)
  pIC50: 5.51
Homo sapiens, T-24, 72 h, T24 cell line (bladder)
  pIC50: 5.20
Homo sapiens, TE-671, 72 h, TE671 cell line (muscle)
  pIC50: 4.90
Homo sapiens, THP-1, 72 h, THP-1 cell line (hematological)
  pIC50: 5.26
Homo sapiens, U2OS, U2OS cell line (bone)
  pIC50: < 4.30
Homo sapiens, U-87 MG, U87MG cell line (brain)
  pIC50: < 4.30
Homo sapiens, UMUC3, 72 h, UMUC3 cell line (bladder)
  pIC50: < 4.30
Homo sapiens, UO-31, 72 h, UO31 cell line (kidney)
  pIC50: 5.34
Homo sapiens, WSU-NHL, WSU-NHL cell line (hematological)
  pIC50: 5.31
MT-3, 72 h, MT3 cell line (breast)
  pIC50: 5.41
NCI-H358M, NCIH358M cell line (lung)
  pIC50: 5.58
PBMC, PBMC (hematological)
  pIC50: < 4.30
RD-ES, RDES cell line (bone)
  pIC50: 5.35
